{"source": "patent US20240182472A1", "about": "“INDAZOLE PYRIDONE COMPOUNDS AND USES THEREOF” (Bluejay Therapeutics, Inc., priority 2022, published 2024)", "key": {"[1]": {"conditions": "cited from earlier work"}, "[2]": {"conditions": "monkeys, starting at 4 weeks, more pronounced effect at 13 weeks; cited from earlier work"}, "OATP1B3": {"target": "T1, OATP1B3 (Homo sapiens, UniProt Q9NPD5)", "T1 construct": "host or cells: HEK293 (HEK293-OATP1B3), stably transfected", "T1 sequence (Q9NPD5 1-702)": "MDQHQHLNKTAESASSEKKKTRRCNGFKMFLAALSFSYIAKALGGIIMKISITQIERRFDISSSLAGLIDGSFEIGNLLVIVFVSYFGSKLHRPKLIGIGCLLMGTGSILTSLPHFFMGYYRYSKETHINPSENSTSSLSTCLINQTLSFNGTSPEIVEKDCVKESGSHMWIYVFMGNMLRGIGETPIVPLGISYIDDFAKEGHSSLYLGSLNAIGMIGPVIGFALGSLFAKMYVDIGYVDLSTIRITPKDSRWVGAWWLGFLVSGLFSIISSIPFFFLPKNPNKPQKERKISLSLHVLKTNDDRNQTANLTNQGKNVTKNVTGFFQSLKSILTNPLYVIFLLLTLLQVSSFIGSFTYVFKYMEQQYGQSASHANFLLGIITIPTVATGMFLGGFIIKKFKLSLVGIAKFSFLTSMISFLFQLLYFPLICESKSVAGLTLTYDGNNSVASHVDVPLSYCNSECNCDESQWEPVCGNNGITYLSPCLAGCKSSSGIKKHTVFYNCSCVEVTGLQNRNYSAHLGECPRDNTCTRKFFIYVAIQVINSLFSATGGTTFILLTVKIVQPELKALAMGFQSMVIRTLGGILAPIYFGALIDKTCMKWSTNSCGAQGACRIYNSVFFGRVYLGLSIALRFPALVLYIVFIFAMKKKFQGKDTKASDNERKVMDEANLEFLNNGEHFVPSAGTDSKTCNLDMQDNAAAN", "assay_type": "in vitro ADME", "protocol": "(§1) The OATP1B1 and OATP1B3 substrate assays were conducted at Wuxi utilizing the human embryonic kidney cell line, HEK293, stably transfected with human transporter genes. The identification of potential transporter substrates are achieved by measuring the Uptake Fold values in the transfected HEK293-OATP1B1 and OATP1B3 cells line and the HEK293-MOCK cell line in the Presence and Absence of positive inhibitors.\n(§2) The objective of this study was to determine whether Compound I.2 and Compound I.6 are potential OATP1B1 and OATP1B3 uptake substrates.\n(§3) HEK-293 cells stably expressing the human OATP1B1 and OATP1B3 transporter and the HEK293-MOCK cell line were licensed from GenoMembrane (Kanagawa, Japan). The culture medium was DMEM (HEK293-OATP1B3 cells were maintained in DMEM/F12) supplemented with 10.0% FBS, 500 μg/mL G418 sulfate solution, 100 U/mL penicillin-G and 100 μg/mL streptomycin. Cells were incubated in 5.0% CO2 at 37.0° C. with saturated humidity. HEK293-OATP1B1 (Passage: 19), OATP1B3 (Passage: 19), and HEK293-MOCK (Passage: 14 and 16) were grown to 80.0 to 90.0% confluence in the culture flask. Trypsin/EDTA (0.05%/0.02%, w/v) was added to detach the cells from the flask. The cells were seeded onto 96-well plates with a density of 5.00×10^4 cells/well, and then incubated for 24 hours in 5.0% CO2 at 37.0° C. with saturated humidity before being used in the uptake study.\n(§4) Pre-incubation: Cell culture medium was removed from the 96-well plates seeded with either HEK293-OATP1B1 and OATP1B3 or HEK293-MOCK cells, followed by rinsing the cells twice with the warm (37.0° C.) Transport Buffer. The cells were then pre-incubated for 30 min with the Transport Buffer in the Presence and Absence of positive inhibitors in 5.0% CO2 at 37.0° C. with saturated humidity.\n(§5) Uptake incubation: At the end of the pre-incubation, the buffers were removed and the cells were treated with Compound I.6 or Compound I.2 at 0.100 or 1.00 μM in the presence and absence of positive inhibitor. In separate wells, the marker substrate for transporter cells were incubated with dosing solution (Table A), all treatments were conducted in triplicate wells in 5.0% CO2 at 37.0° C. with saturated humidity.\n(§6) Cell lysing: At the end of the incubations, dosing solution was removed. After removing the remaining dosing solution, the cell was rinsed three times with ice-cold Transport Buffer (2.0-8.0° C.) followed by adding 100 μL cold acetonitrile:methanol (95: 5, v: v) containing internal standard into the cells treated with test compound for bioanalysis. For the cells dosed with positive control, the cells were added 100 μL cold acetonitrile:methanol (95:5, v: v) containing internal standard for bioanalysis. All samples were gently shaken for 30 min. Then for test compound and positive control, 75 μL of the cell lysate was mixed with 75 μL of Transport Buffer and 150 μL of cold acetonitrile:methanol (95:5, v:v) containing internal standard. The lysis sample was centrifuged for 10 min at 3220×g before the supernatant, defined as the terminal sample, was taken for the determination of the intracellular uptake of the test compounds or substrate by LC-MS/MS.\n(§7) Uptake Fold was calculated using equation (1)"}, "OATP1B1": {"target": "T2, OATP1B1 (Homo sapiens, UniProt Q9Y6L6)", "T2 construct": "host or cells: HEK293 (HEK293-OATP1B1), stably transfected", "T2 sequence (Q9Y6L6 1-691)": "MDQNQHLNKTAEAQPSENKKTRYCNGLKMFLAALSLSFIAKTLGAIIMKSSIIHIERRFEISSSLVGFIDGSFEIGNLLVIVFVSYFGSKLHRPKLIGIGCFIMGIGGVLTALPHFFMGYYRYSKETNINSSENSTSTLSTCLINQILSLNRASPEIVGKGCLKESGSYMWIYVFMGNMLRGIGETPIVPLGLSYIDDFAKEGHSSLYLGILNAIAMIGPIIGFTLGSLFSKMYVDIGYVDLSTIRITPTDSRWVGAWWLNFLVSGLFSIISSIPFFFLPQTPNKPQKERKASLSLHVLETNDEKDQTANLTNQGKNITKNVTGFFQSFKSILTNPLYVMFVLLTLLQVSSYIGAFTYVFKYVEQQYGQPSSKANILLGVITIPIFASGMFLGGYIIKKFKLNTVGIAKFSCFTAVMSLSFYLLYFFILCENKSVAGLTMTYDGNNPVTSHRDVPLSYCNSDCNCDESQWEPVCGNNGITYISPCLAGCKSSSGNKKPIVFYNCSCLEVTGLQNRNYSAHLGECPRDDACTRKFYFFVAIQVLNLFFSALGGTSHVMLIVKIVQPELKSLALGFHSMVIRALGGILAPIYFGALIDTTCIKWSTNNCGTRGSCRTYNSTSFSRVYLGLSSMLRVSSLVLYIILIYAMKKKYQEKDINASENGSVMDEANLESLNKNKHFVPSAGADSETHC", "assay_type": "in vitro ADME", "protocol": "as §1, §2, §3, §4, §5, §6, §7"}, "HBV S-antigen secretion": {"tested_on": "HBV S-antigen secretion", "experiment": "HBsAg assay (HepG2 HBV S-antigen secretion biological assay)", "assay_type": "cell-based", "conditions": "Hepatitis B virus, HepG2.2.15, 72 h, read-out: EC50, HBV S-antigen secretion", "protocol": "HepG2.2.15 cells were grown in flasks microscopically and seeded into 96-well plates at a concentration of 6.0×10^4 cells/well and incubated at 37° C., 5% CO2 overnight.\nSource plate preparation. The stock concentration of reference compound and test compounds is 20 mM. Firstly, manually diluted the compound to obtain the first concentration points of 10 μM and 200 μM, respectively. Then a 3-fold, 8 points serial dilution is performed to obtain the 200× source plate.\nSource plate compounds were pipetted as follows: 3 μL 200× source plate compounds into sterile 2 mL 96 well plate which contain 297 μL 2% FBS Medium, mix well and transfer 100 μL/well to corresponding cell culture plates. Therefore, the test conditions of the final compounds is 1 μM initiation, 3-fold serial dilution, and 8 concentration points in duplicate.\nIncubate the cells at 37° C., 5% CO2 for three days.\n24 hours post-seeding, the cells were treated with 200 μl/well of media containing serially diluted compounds in DMSO. DMSO alone was used as the no drug control. The final DMSO concentration in all wells was 0.5%.\nThe HBsAg kit (Auto Biology-CL 0310) was used to determine the level of secreted HBVsAg. The HBSAg assay was performed as follows: • a) Blance the ELISA kit at room temperature for 30 minutes. • b) Add 50 μL standard solution, sample, positive and negative control to each well of the microplate in the kit. • c) Add 50 μL HBsAg enzyme conjugate to each well. • d) Attach the plate membrane, oscillate for 60 seconds, and incubate at 37° C. for 60 minutes. • e) Add 350 μL washing buffer to each well, shake slightly, discard liquid, repeat 6 times. Then pat 5 times on an absorbent paper towel to dry the hole. • f) Add 50 μL mixture of reagent A and B to each well. Oscillate the microplate for 10 seconds. • g) Cover the plate membrane and incubate at room temperature for 10 minutes. Read the luminescent signal using Biotek-Synergy 2.\nCompounds inhibition against HBsAg at different concentrations are calculated by the following formula:\nInhibition %=(1−value of sample/ave. value of control)×100\n50% effective concentrations (EC50) and were calculated with the GraphPad Prism software."}}, "note": "Like-named read-outs stand apart in the source and are kept apart here.", "data": [{"compound": "COCCOc1cc2c(cc1COC)-c1cc(=O)c(C(=O)O)cn1N1[C@@H]2CCC1(C)C", "note": "[GS-8873]", "values": [{"measurement": "change from baseline of rat caudal nerve NCV, digital NCV, cauda equina latency, digital latency, tibial nerve latency", "setting": "[1]; 13 weeks, daily doses 20 MPK/day and 60 MPK/day", "result": "greater than 20%"}, {"measurement": "nerve conduction velocity (NCV) of several peripheral nerves", "setting": "[1]; rats, starting at 4 weeks, more pronounced effect at 13 weeks", "result": "prolong the nerve conduction velocity"}, {"measurement": "nerve conduction velocity (NCV) of several peripheral nerves", "setting": "[2]", "result": "prolong the nerve conduction velocity"}]}, {"compound": "CC(C)(C)[C@@H]1Cn2nc3c(OCCCCCCCC(=O)O)cccc3c2-c2cc(=O)c(C(=O)O)cn21", "note": "[I.6, (R)-6-(tert-butyl)-10-((7-carboxyheptyl)oxy)-2-oxo-6,7-dihydro-2H-pyrido[2′,1′:3,4]pyrazino[1,2-b]indazole-3-carboxylic acid]", "values": [{"measurement": "Uptake ratio", "setting": "OATP1B3; 0.1 μM", "result": 1.74}, {"measurement": "Uptake ratio", "setting": "OATP1B3; 1 μM", "result": 4.9}, {"measurement": "Uptake ratio", "setting": "OATP1B1; 0.1 μM", "result": 11.5}, {"measurement": "Uptake ratio", "setting": "OATP1B1; 1 μM", "result": 18.2}, {"measurement": "EC50", "setting": "HBV S-antigen secretion", "result": "2.6 ± 0.6", "unit": "nM"}]}, {"compound": "CC(C)(C)[C@@H]1Cn2nc3c(OCCCCCCC(=O)O)cccc3c2-c2cc(=O)c(C(=O)O)cn21", "note": "[I.2, (R)-6-(tert-butyl)-10-((6-carboxyhexyl)oxy)-2-oxo-6,7-dihydro-2H-pyrido[2′,1′:3,4]pyrazino[1,2-b]indazole-3-carboxylic acid]", "values": [{"measurement": "Uptake ratio", "setting": "OATP1B3; 0.1 μM", "result": 2.23}, {"measurement": "Uptake ratio", "setting": "OATP1B3; 1 μM", "result": 2.34}, {"measurement": "Uptake ratio", "setting": "OATP1B1; 0.1 μM", "result": 2.87}, {"measurement": "Uptake ratio", "setting": "OATP1B1; 1 μM", "result": 1.10}, {"measurement": "EC50", "setting": "HBV S-antigen secretion", "result": "6.5 ± 2.5", "unit": "nM"}]}]}
